Source: patent US4780281A, “Method for assay of peroxidase enzyme or reducing substrate activity” (Wayne State University, priority 1985, dated 1988)
Blank lines part the entries; values can stand above or below the compound they belong to.

Legend:
[1] = target: T1, glutathione peroxidase (Homo sapiens, UniProt P07203); test: PPHP as peroxidase substrate; assay type: biochemical
T1 sequence (P07203 1-203): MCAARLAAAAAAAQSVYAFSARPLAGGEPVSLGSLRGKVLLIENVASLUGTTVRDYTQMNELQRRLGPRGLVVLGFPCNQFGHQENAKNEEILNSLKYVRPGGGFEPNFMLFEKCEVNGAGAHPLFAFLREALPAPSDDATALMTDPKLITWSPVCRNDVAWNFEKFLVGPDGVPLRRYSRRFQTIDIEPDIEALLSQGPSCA
From the text: (§1) A practical method is described for the determination of peroxidase enzyme activity that monitors the ability of enzyme preparations to reduce PPHP in the presence of a reducing substrate. […] The alcohol product and hydroperoxide substrate are conveniently separated by HPLC and reliably quantitated by ultraviolet detection. These properties make PPHP an ideal substrate for the assay. […] Thus, the procedure is a general assay for peroxidase activity.

[2] = target: T2, catalase (Homo sapiens, UniProt P04040); test: PPHP as peroxidase substrate; assay type: biochemical
T2 sequence (P04040 2-527 limits assumed): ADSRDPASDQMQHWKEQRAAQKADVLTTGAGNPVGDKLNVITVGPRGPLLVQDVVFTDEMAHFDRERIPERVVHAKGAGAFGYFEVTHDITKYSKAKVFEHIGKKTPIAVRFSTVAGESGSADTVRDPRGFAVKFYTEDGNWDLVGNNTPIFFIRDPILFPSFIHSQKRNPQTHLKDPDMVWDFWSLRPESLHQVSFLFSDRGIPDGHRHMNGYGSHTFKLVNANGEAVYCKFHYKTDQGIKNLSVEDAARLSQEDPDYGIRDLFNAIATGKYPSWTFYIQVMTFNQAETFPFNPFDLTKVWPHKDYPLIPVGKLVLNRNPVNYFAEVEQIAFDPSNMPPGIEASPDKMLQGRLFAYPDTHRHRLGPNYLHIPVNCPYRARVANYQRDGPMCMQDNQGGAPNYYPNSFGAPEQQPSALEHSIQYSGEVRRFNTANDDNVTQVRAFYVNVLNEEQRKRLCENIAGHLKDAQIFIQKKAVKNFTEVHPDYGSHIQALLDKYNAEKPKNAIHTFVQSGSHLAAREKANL
From the text: as §1

[3] = target: lactoperoxidase (Bos taurus, UniProt P80025); test: PPHP as peroxidase substrate; assay type: biochemical
From the text: as §1

[4] = tested on: cytochrome P-450; test: PPHP as peroxidase substrate; assay type: biochemical
From the text: as §1

[5] = target: T3, Horseradish peroxidase (HRP) (Armoracia rusticana, UniProt P00433); test: Reducing substrate specificity assay (HRP-catalysed reduction of PPHP to PPA, HPLC); assay type: biochemical; details: for Index = concentration PPA/(concentration PPA+concentration PPHP): 100 microM PPHP, 0.1 M potassium citrate pH 5.5, 0.2 mM Tween-20, 25° C., 6 minutes, triplicate
T3 construct: purchased Sigma Chemical Corporation Type VI
T3 sequence (P00433 31-338 limits assumed): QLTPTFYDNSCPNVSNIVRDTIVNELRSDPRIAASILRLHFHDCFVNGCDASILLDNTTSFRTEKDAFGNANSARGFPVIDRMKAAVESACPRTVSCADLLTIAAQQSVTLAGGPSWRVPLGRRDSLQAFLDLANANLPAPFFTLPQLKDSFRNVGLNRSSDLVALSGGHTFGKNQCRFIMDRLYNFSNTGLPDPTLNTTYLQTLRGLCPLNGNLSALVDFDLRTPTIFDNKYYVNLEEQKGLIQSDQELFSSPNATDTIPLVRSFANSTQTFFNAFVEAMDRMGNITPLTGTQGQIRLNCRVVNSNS
Description: Incubations were performed in triplicate with a 25° C. shaker bath in 16×150 mm disposable glass test tubes. 60 nM HRP was incubated at 25° C. in 0.1 M potassium citrate buffer, […] containing 0.2 mM Tween 20, with 100 microM PPHP and 200 microM potential reducing substrate. The index value is defined as, Index=concentration PPA/(concentration PPA+concentration PPHP). Most reducing substrates were prepared daily as 8 mM stocks in either water, methanol, or methanol:water (1:1 v/v). DPBF was dissolved in acetone. Uric acid was dissolved in DMSO. Epinephrine required titration with dilute hydrochloric acid prior to dissolution in methanol. Indoleacetic acid, tryptophan, cysteine, and methionine were titrated with dilute potassium hydroxide prior to dissolution in methanol:water (1:1 v/v).
For the data in Table 1 hereinafter, reducing substrates (50 microliters of 8 mM stocks--see Table 1 for preparation) were transferred into 1.9 ml of 0.1 M potassium citrate buffer, pH 5.5, containing 0.2 mM Tween-20 and allowed to thermally equilibrate for 10 minutes. HRP (24 microl of a 5 microM stock) was added to each trial and preincubated for three minutes prior to the addition of PPHP (25 microl of 8 mM stock in methanol). Incubations were stopped at 6 minutes by pouring mixtures onto Baker SPE System columns (3 ml octyldecylsilyl, from J. T. Baker & Co.). The columns were prepared prior to use by passing 3×3 ml aliquots of water through the columns with the Baker SPE vacuum system. At the stop time, an individual trial was poured onto the column and aspirated to near dryness. Each individual trial was set aside until the reminder of the trials were treated in the same manner. After all incubation trials were partitioned onto the SPE columns, each individual incubation tube was washed with 2 ml of 0.2 mM Tween 20 in distilled water and poured onto the corresponding SPE column. This Tween 20/water wash was aspirated to near dryness with vacuum. Analytes were eluted into 12×76 mm disposable glass test tubes with 2×1 ml aliquots of methanol (HPLC grade, Fisher Scientific Co.). The sample collection rack for the Baker 10 SPE System was modified to accommodate these 12 mm diameter tubes. The SPE columns were aspirated dry at this point and discarded. An internal chromatographic standard of p-nitrobenzyl alcohol (25 microl of 8 mM stock solution in methanol) was added to each methanol eluent, mixed by vortexing, and then clarified by filtration through a 0.45 micron nylon Swinney type filter (Rainin Instrument Corp.). The filtered eluents were used directly for chromatographic analysis.
The Initial incubation conditions were 0.1 M potassium citrate buffer, pH 5.5, with 0.2 mM Tween 20, 200 microM reducing substrate, 60 nM HRP and […] PPHP (structure 1).
Quantitation was determined by adding an internal standard (p-nitrobenzyl alcohol: annotated as I.S. on chromatograms) and ratioing peak areas. Chromatograms are 40 microliters injections onto a 5 micron Zorbax octylsilyl reverse-phase column (DuPont Instrument Corp.) with an isocratic elution mobile of 56% v/v methanol in water at 2 ml per min. U.V. monitoring was with a fixed 254 nm detector (Varian 5000, Varian Instrument Corp.). Vertical numbers are associated with peak retention times in minutes (the integrator used was a Vista 402 System, Varian Instruments).
Analyte concentrations were calculated by an internal standard method of calculation. This required individual incubation chromatograms to be compared to a calibration chromatogram generated by chromatographing a 40 microliter sample aliquot of a solution of PPHP as described under calculations.

[6] = Solubility of PPHP; assay type: physicochemical; details: aqueous buffers
[7] = Stability of PPHP; assay type: physicochemical; details: protected from light and metals
[8] = target: T4, Prostaglandin H Synthase (Ovis aries, UniProt P05979); test: Reducing substrate efficiency for PPHP reduction, conditions as for Table 1; assay type: biochemical
T4 sequence (P05979 25-600): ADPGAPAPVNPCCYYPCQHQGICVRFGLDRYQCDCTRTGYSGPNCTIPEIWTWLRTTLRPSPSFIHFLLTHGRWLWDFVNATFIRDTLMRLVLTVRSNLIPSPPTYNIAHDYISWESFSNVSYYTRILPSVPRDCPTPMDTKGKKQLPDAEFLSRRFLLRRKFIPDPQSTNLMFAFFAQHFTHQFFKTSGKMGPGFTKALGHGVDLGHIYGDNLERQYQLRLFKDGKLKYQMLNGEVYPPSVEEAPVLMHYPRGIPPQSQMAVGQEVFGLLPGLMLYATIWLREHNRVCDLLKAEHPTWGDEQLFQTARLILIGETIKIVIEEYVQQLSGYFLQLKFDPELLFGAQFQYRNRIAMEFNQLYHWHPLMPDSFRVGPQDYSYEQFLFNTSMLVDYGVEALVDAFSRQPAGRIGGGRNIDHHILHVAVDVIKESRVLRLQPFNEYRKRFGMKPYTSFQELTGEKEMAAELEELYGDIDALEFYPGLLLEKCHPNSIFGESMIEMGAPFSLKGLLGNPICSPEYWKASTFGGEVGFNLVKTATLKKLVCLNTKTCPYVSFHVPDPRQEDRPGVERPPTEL

[9] = target: T5, HRP (Armoracia rusticana, UniProt P00433); test: Steady-state kinetic assay (PPA production, SPE/HPLC); assay type: biochemical, horseradish; details: HRP with phenol as reducing substrate
T5 construct: purchased Sigma Chemical Corporation Type VI
T5 sequence (P00433 31-338 limits assumed): T3 sequence (P00433 31-338 limits assumed)
Description: The incubations were terminated at 2, 4, and 8 minutes by pouring the incubations onto SPE columns as described in Methods. […] The data points are the average of triplicates. […] All buffers contained 0.2 mM Tween-20. Incubations were stopped at 4 minutes by pouring onto SPE columns as described in Methods. Each data point is the average of triplicates. […] Incubations were stopped at 4 minutes by pouring on SPE columns as described in Methods. PPA concentrations were converted into velocities by dividing by the incubation time and assuming linear steady-state velocities over the first 8 minutes (see FIG. 3). Five replicates of each phenol concentration were assayed. Km and Vmax were determined by linear regression analysis upon the non-averaged data points.
We designed the assays with 4 minute termination times converting either the concentration of PPHP or PPA into velocities.

[10] = tested on: HRP isoenzymes; details: similar preparation of HRP isoenzymes, phenylperoxyacetic acid; cited from earlier work
[11] = target: T6, HRP compound II (Armoracia rusticana, UniProt P00433); details: pH 8.11; read-out: Km for the reaction with HRP compound II; cited from earlier work
T6 sequence (P00433 31-353): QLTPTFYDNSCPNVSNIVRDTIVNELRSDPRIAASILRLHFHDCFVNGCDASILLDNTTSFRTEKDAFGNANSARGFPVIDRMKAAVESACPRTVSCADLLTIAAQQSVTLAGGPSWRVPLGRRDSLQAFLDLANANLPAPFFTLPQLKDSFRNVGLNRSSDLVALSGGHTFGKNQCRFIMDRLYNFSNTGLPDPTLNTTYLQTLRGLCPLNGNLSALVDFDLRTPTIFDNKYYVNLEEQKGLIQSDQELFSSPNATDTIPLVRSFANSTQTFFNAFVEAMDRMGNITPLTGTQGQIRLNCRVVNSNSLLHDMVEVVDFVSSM

[12] = 60 nM HRP, 200 microM reducing substrate

- suitability as peroxidase substrate [1]: excellent substrate
- suitability as peroxidase substrate [2]: excellent substrate
- suitability as peroxidase substrate [3]: excellent substrate
- suitability as peroxidase substrate [4]: excellent substrate
- suitability as peroxidase substrate ([5]; HRP): excellent substrate
- solubility [6]: soluble in aqueous buffers
- suitability as peroxidase substrate ([8]; protaglandin H (PGH) synthase): excellent substrate
Structure (SMILES): OOCCC/C=C/c1ccccc1 [PPHP, 1-hydroperoxy-5-Phenyl-4-pentene]
- stability [7]: stable if protected from light and metals

Structure (SMILES): Oc1ccccc1 [Phenol, phenol]
- Index = concentration PPA/(concentration PPA+concentration PPHP) [5, 12]: 0.97 ± 0.01
- reducing substrate quality for HRP (FIG. 1) ([5]; 200 microM reducing substrate, 60 nM HRP, pH 5.5): good
- turnover number of PHP reduction [9]: 10500 min
- Index of Efficiency of Reducing Substrates ([8]; Prostaglandin H synthase, under the conditions for Table 1): .51

- Index = concentration PPA/(concentration PPA+concentration PPHP) [5, 12]: 0.97 ± 0.01
Structure (SMILES): Oc1cccc(O)c1O [Pyrogallol, pyrogallol]
- turnover for pyrogallol oxidation [10]: 18500 min⁻¹

Structure (SMILES): Cc1ccc(O)cc1 [p-cresol]
- Km [11]: ~180 µM
